The supplement of paper PMC10307832

compound: CC1(COc2ccc3c(c2)ncn3-c2ccc3cccc(N4CCC(N)CC4)c3n2)COC1 [Crenolanib] + O=C(c1cc(Cc2n[nH]c(=O)c3ccccc23)ccc1F)N1CCN(C(=O)C2CC2)CC1 [Olaparib] (partner 8 µM); experiment: relative viability (nuclei count vs DMSO), 5 days (fraction); higher = more cells survive; conditions: first compound 1 µM
Procedure, shortened: (§1)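 After 5 days of treatment, lung cancer cells in 1536-well plates were fixed and stained in a single step (final 0.05% Triton X-100, 1% formaldehyde, 1 ug/ml Hoechst) and their nuclei counted on 4× images. Treatment had been applied by pin tool the day after seeding as one drug alone or as a fixed anchor-drug dose with five library-drug doses (not always all listed) in √10 steps. Relative viability is the nuclei count of treated wells divided by that of vehicle wells, and values are medians of duplicate plates.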

In order of rising relative viability:
1. NCI-H1915  0.244
2. HCC-366  0.332
3. NCI-H23  0.341
4. NCI-H1792  0.384
5. NCI-H1944  0.397
6. H3255  0.531
7. NCI-H1437  0.591
8. NCI-H358  0.603
9. ABC-1  0.625
10. LCLC-103H  0.712
11. NCI-H1793  0.762
12. NCI-H2085  0.784
13. NCI-H322M  0.795
14. EKVX  0.809
15. RERF-LC-KJ  0.93
16. NCI-H1993  0.937
17. PC-3 [JPC-3]  1.06

compound: O=C1NC(=O)[C@@H](c2cn3c4c(cccc24)CCC3)[C@@H]1c1c[nH]c2ccccc12 [Tivantinib] + Nc1ncn([C@H]2C[C@H](O)[C@@H](CO)O2)c(=O)n1 [Decitabine] (partner 2 µM); experiment: as above; conditions: first compound 0.01 µM
Procedure, shortened: as §1

In order of rising relative viability:
1. HOP-62  0.173
2. NCI-H358  0.212
3. NCI-H441  0.22
4. NCI-H1915  0.279
5. HCC-827  0.312
6. EKVX  0.312
7. NCI-H23  0.333
8. HCC-366  0.349
9. NCI-H650  0.355
10. NCI-H1355  0.377
11. NCI-H1944  0.43
12. NCI-H1975  0.446
13. NCI-H460  0.496
14. NCI-H1793  0.502
15. NCI-H2085  0.534
16. NCI-H1792  0.535
17. NCI-H1437  0.57
18. NCI-H1993  0.59
19. A-427  0.602
20. NCI-H322M  0.615
21. LCLC-103H  0.658
22. NCI-H2347  0.699
23. HCC-15  0.715
24. NCI-H1755  0.727
25. NCI-H1395  0.736
26. NCI-H1666  0.745
27. NCI-H727  0.748
28. NCI-H2405  0.754
29. PC-3 [JPC-3]  0.766
30. RERF-LC-KJ  0.802
31. LOU-NH91  0.825
32. 201T  0.829
33. ABC-1  1.23

same assay, conditions: first compound 0.03162 µM

In order of falling relative viability:
1. ABC-1  1.22
2. NCI-H727  0.924
3. 201T  0.861
4. LOU-NH91  0.805
5. PC-3 [JPC-3]  0.798
6. NCI-H2405  0.789
7. LCLC-103H  0.762
8. NCI-H322M  0.703
9. NCI-H1666  0.684
10. NCI-H1755  0.67
11. NCI-H1395  0.665
12. HCC-15  0.636
13. RERF-LC-KJ  0.632
14. NCI-H2347  0.592
15. A-427  0.579
16. NCI-H1437  0.568
17. NCI-H2085  0.556
18. H3255  0.53
19. NCI-H1993  0.503
20. NCI-H460  0.499
21. NCI-H1793  0.497
22. NCI-H1944  0.451
23. HCC-827  0.396
24. NCI-H1975  0.395
25. EKVX  0.351
26. NCI-H1355  0.316
27. NCI-H23  0.294
28. HCC-366  0.289
29. NCI-H650  0.287
30. NCI-H441  0.261
31. NCI-H1915  0.248
32. NCI-H358  0.227
33. HOP-62  0.191

same assay, conditions: first compound 0.1 µM

In order of rising relative viability:
1. NCI-H441  0.139
2. NCI-H358  0.189
3. HOP-62  0.196
4. NCI-H1915  0.263
5. NCI-H23  0.31
6. NCI-H650  0.315
7. HCC-827  0.316
8. HCC-366  0.324
9. NCI-H1355  0.342
10. NCI-H1975  0.358
11. EKVX  0.381
12. NCI-H460  0.427
13. NCI-H1944  0.44
14. NCI-H1792  0.473
15. NCI-H1793  0.495
16. NCI-H1437  0.497
17. NCI-H1993  0.506
18. A-427  0.508
19. HCC-15  0.538
20. NCI-H2085  0.554
21. H3255  0.591
22. NCI-H2347  0.623
23. RERF-LC-KJ  0.63
24. NCI-H322M  0.715
25. NCI-H1755  0.725
26. NCI-H2405  0.73
27. LCLC-103H  0.731
28. NCI-H1666  0.748
29. LOU-NH91  0.803
30. ABC-1  0.825
31. 201T  0.839
32. PC-3 [JPC-3]  0.839
33. NCI-H1395  0.845
34. NCI-H727  0.882

same assay, conditions: first compound 0.3162 µM

In order of falling relative viability:
1. ABC-1  0.968
2. 201T  0.81
3. NCI-H2405  0.79
4. NCI-H1755  0.765
5. HCC-15  0.755
6. NCI-H1666  0.747
7. NCI-H1395  0.713
8. LCLC-103H  0.708
9. LOU-NH91  0.669
10. NCI-H2347  0.629
11. RERF-LC-KJ  0.622
12. PC-3 [JPC-3]  0.6
13. NCI-H2085  0.551
14. NCI-H1437  0.545
15. NCI-H1993  0.539
16. A-427  0.518
17. NCI-H1792  0.505
18. NCI-H460  0.458
19. NCI-H1793  0.404
20. NCI-H1944  0.401
21. NCI-H1355  0.381
22. NCI-H1975  0.34
23. NCI-H650  0.327
24. NCI-H23  0.318
25. HCC-366  0.301
26. H3255  0.27
27. NCI-H1915  0.254
28. HOP-62  0.242
29. NCI-H441  0.239
30. EKVX  0.153
31. NCI-H358  0.145

compound: O=C1NC(=O)[C@@H](c2cn3c4c(cccc24)CCC3)[C@@H]1c1c[nH]c2ccccc12 [Tivantinib] + CS(=O)(=O)N1CCN(Cc2cc3nc(-c4cccc5[nH]ncc45)nc(N4CCOCC4)c3s2)CC1 [Pictilisib] (partner 1 µM); experiment: as above; conditions: first compound 0.01 µM
Procedure, shortened: as §1

In order of rising relative viability:
1. HCC-366  0.157
2. NCI-H1975  0.283
3. NCI-H1944  0.308
4. NCI-H460  0.331
5. NCI-H1792  0.343
6. NCI-H1793  0.353
7. NCI-H727  0.36
8. NCI-H1437  0.379
9. NCI-H1355  0.401
10. NCI-H358  0.406
11. NCI-H23  0.43
12. EKVX  0.449
13. NCI-H1755  0.462
14. H3255  0.466
15. NCI-H2085  0.477
16. NCI-H441  0.499
17. NCI-H322M  0.505
18. NCI-H2405  0.509
19. LOU-NH91  0.517
20. RERF-LC-KJ  0.543
21. NCI-H1666  0.552
22. NCI-H1395  0.581
23. A-427  0.663
24. LCLC-103H  0.684
25. PC-3 [JPC-3]  0.687
26. HCC-15  0.705
27. HOP-62  0.708
28. 201T  0.713
29. ABC-1  0.802
30. NCI-H1993  0.817
31. NCI-H650  0.835
32. NCI-H1915  0.902
33. NCI-H2347  0.986
34. HCC-827  1.15

same assay, conditions: first compound 0.03162 µM

In order of falling relative viability:
1. HCC-827  1.01
2. NCI-H1915  0.92
3. NCI-H1993  0.857
4. NCI-H2347  0.724
5. PC-3 [JPC-3]  0.705
6. A-427  0.702
7. HCC-15  0.671
8. RERF-LC-KJ  0.618
9. NCI-H1395  0.595
10. 201T  0.569
11. LCLC-103H  0.517
12. ABC-1  0.51
13. H3255  0.494
14. LOU-NH91  0.485
15. NCI-H322M  0.481
16. NCI-H2085  0.471
17. NCI-H441  0.451
18. NCI-H2405  0.43
19. NCI-H1793  0.42
20. NCI-H1755  0.417
21. EKVX  0.381
22. NCI-H727  0.368
23. NCI-H1355  0.356
24. NCI-H1666  0.352
25. NCI-H23  0.324
26. NCI-H1437  0.308
27. NCI-H1975  0.304
28. NCI-H1944  0.294
29. NCI-H358  0.284
30. NCI-H460  0.274
31. NCI-H1792  0.235
32. HCC-366  0.147

same assay, conditions: first compound 0.1 µM

In order of falling relative viability:
1. HCC-827  0.983
2. NCI-H1915  0.93
3. HOP-62  0.864
4. NCI-H1993  0.843
5. NCI-H650  0.817
6. PC-3 [JPC-3]  0.765
7. LCLC-103H  0.704
8. ABC-1  0.681
9. A-427  0.677
10. HCC-15  0.674
11. 201T  0.673
12. NCI-H441  0.601
13. NCI-H1395  0.571
14. NCI-H23  0.533
15. LOU-NH91  0.521
16. NCI-H2347  0.514
17. RERF-LC-KJ  0.51
18. H3255  0.485
19. NCI-H322M  0.467
20. NCI-H727  0.447
21. NCI-H1793  0.437
22. NCI-H1666  0.43
23. NCI-H1355  0.426
24. NCI-H358  0.418
25. EKVX  0.417
26. NCI-H1437  0.416
27. NCI-H2085  0.392
28. NCI-H1755  0.39
29. NCI-H2405  0.381
30. NCI-H460  0.335
31. NCI-H1944  0.332
32. NCI-H1792  0.288
33. NCI-H1975  0.281
34. HCC-366  0.119

same assay, conditions: first compound 0.3162 µM

In order of rising relative viability:
1. HCC-366  0.141
2. EKVX  0.163
3. NCI-H1792  0.186
4. NCI-H441  0.242
5. NCI-H1975  0.259
6. NCI-H358  0.294
7. NCI-H460  0.33
8. NCI-H1755  0.355
9. NCI-H1944  0.369
10. NCI-H1355  0.38
11. NCI-H23  0.382
12. NCI-H2405  0.4
13. NCI-H322M  0.4
14. NCI-H1666  0.401
15. NCI-H1437  0.407
16. HCC-827  0.415
17. RERF-LC-KJ  0.461
18. NCI-H2085  0.515
19. LOU-NH91  0.519
20. NCI-H2347  0.525
21. NCI-H1395  0.61
22. LCLC-103H  0.63
23. PC-3 [JPC-3]  0.637
24. 201T  0.694
25. ABC-1  0.731
26. A-427  0.749
27. HOP-62  0.792
28. HCC-15  0.799
29. NCI-H650  0.8
30. NCI-H1993  0.902
31. NCI-H1915  1.04
